Assay results from article PMC8211653, “Polθ inhibitors elicit BRCA-gene synthetic lethality and target PARP inhibitor resistance” (Nature Communications, 2021).

What was measured:
Polα = target: T1, Polα (Homo sapiens, UniProt P09884); experiment: biochemical; design: inhibition of human DNA polymerases, selectivity assay
T1 construct: gene POLA1
T1 sequence (P09884 1-1462): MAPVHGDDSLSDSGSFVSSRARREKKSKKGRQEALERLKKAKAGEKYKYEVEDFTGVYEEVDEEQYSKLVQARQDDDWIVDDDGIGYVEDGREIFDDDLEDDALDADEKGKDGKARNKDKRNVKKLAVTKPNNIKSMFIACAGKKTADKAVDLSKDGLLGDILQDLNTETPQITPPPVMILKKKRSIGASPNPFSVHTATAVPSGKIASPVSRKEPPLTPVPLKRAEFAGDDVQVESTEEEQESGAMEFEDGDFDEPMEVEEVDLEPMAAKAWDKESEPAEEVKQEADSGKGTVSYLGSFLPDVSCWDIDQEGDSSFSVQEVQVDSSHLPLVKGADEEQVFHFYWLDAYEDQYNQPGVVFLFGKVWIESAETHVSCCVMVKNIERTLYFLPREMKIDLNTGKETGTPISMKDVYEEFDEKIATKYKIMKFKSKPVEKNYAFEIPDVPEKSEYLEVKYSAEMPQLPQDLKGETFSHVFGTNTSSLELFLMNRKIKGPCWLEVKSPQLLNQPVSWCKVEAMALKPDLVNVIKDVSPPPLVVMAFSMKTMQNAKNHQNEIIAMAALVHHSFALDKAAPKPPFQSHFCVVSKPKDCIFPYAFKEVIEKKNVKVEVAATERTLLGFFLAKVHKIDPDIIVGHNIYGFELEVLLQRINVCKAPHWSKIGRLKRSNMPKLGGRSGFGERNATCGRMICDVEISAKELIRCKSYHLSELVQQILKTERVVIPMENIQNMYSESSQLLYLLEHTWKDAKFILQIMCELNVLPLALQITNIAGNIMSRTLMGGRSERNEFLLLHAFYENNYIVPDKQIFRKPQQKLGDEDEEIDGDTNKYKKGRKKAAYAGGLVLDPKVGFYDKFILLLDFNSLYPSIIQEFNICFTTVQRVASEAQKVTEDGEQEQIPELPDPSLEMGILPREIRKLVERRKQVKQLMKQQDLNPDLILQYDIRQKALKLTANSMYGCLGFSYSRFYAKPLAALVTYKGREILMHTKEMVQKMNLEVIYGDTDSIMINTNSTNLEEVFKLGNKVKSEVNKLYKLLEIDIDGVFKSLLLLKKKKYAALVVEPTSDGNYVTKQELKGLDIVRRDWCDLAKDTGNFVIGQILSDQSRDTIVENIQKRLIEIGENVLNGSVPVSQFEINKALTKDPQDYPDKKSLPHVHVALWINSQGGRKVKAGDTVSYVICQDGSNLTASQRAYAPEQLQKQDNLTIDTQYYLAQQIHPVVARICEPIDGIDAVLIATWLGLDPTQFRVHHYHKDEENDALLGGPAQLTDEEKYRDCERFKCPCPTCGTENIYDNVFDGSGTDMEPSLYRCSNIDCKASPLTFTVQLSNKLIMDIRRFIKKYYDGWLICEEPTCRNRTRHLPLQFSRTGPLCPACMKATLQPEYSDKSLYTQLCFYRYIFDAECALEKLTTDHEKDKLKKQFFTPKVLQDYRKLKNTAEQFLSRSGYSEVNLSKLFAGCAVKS

Polη = target: T2, Polη (Homo sapiens, UniProt Q9Y253); experiment: biochemical; design: inhibition of human DNA polymerases, selectivity assay
T2 construct: gene POLH
T2 sequence (Q9Y253 1-713): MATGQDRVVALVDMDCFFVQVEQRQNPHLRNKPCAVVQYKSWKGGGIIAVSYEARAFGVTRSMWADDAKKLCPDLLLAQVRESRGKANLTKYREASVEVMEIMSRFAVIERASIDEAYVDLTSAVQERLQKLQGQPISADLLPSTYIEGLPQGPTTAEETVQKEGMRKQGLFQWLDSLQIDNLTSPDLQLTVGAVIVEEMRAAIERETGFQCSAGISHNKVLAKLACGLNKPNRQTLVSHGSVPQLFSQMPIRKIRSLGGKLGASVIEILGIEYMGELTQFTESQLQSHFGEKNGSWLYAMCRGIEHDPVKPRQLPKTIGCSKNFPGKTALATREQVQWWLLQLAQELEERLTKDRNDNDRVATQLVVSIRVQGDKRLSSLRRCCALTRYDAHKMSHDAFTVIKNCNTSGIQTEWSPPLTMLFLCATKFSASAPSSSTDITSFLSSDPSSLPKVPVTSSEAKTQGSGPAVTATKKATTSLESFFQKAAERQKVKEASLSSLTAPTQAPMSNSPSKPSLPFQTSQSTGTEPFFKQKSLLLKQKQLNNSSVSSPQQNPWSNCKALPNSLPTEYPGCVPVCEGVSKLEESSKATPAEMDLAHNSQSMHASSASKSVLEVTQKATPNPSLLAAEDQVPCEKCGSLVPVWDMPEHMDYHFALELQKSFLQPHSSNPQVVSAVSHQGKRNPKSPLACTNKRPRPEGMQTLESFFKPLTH

DNA polymerase Polθ = target: T3, DNA polymerase Polθ (Homo sapiens, UniProt O75417); experiment: PicoGreen DNA primer extension assay with recombinant full-length enzyme; supported by DNA-dependent DSF stabilisation and mechanism-of-action kinetics; type: biochemical
T3 construct: gene POLQ; full-length (residues 2–2590)
T3 sequence (O75417 2-2590): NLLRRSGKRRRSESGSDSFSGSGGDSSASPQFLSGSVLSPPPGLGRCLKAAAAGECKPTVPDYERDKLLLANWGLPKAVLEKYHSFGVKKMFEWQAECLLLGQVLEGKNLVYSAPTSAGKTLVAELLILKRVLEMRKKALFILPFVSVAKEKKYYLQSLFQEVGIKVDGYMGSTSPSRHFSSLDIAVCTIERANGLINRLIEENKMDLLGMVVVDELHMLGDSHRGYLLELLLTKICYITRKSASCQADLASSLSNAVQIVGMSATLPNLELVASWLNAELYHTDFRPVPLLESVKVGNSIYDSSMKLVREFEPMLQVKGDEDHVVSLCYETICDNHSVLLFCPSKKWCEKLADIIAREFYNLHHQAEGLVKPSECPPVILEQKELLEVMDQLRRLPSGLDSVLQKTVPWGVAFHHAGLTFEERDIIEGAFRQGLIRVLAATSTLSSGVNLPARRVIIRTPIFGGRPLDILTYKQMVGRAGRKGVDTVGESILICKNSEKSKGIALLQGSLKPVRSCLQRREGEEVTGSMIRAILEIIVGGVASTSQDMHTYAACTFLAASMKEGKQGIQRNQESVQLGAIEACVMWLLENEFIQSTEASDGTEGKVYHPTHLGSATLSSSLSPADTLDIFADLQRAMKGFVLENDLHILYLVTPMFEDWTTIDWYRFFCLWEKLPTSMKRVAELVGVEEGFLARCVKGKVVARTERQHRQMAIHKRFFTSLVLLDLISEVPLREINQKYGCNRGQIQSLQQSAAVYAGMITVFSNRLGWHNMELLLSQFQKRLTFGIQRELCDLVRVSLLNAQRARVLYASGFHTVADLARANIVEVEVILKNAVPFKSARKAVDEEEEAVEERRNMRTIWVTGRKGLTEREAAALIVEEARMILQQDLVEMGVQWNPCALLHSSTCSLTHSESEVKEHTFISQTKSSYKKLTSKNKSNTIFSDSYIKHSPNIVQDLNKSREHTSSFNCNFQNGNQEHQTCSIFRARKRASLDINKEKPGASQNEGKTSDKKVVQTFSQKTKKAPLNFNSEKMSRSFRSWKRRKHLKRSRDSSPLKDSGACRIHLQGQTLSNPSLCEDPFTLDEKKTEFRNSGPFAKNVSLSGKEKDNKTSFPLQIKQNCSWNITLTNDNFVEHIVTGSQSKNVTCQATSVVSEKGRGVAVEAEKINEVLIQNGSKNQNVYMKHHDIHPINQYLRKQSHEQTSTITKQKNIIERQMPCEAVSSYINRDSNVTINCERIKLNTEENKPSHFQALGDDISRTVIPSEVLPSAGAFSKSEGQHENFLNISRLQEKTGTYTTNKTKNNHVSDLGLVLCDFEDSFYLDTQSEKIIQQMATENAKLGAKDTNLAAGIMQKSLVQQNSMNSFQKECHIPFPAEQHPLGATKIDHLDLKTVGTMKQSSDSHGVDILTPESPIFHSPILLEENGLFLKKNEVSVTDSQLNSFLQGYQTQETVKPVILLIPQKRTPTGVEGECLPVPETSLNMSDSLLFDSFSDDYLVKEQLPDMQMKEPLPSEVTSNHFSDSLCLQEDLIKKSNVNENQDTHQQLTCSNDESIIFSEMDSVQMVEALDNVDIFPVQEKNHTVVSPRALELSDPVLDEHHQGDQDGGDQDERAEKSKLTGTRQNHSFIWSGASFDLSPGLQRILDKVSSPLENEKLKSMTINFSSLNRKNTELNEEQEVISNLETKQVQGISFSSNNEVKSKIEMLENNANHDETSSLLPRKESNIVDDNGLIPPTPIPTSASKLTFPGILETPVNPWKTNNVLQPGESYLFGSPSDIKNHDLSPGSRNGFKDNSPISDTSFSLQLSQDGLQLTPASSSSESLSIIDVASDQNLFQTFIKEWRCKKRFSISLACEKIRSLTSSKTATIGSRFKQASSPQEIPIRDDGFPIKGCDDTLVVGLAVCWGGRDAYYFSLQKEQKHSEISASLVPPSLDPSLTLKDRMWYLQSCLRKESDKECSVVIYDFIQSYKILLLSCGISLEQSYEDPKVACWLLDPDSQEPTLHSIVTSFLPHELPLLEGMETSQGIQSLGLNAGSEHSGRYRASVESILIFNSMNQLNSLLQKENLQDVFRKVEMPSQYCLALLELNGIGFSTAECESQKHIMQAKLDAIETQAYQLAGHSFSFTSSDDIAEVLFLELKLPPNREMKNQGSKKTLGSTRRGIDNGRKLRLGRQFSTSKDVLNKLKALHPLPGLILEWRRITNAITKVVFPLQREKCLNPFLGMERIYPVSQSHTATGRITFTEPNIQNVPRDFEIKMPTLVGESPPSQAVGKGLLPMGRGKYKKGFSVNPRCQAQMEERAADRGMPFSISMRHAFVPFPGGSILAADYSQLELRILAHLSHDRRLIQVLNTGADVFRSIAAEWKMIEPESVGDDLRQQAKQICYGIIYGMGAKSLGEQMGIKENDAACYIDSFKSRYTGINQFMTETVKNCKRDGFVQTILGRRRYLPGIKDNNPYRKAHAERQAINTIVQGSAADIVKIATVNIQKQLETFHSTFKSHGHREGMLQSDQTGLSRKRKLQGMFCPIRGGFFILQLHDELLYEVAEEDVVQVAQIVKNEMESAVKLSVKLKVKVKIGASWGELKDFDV

Polγ = target: T4, Polγ (Homo sapiens, UniProt P54098); experiment: biochemical; design: inhibition of human DNA polymerases, selectivity assay
T4 construct: gene POLG
T4 sequence (P54098 1-1239): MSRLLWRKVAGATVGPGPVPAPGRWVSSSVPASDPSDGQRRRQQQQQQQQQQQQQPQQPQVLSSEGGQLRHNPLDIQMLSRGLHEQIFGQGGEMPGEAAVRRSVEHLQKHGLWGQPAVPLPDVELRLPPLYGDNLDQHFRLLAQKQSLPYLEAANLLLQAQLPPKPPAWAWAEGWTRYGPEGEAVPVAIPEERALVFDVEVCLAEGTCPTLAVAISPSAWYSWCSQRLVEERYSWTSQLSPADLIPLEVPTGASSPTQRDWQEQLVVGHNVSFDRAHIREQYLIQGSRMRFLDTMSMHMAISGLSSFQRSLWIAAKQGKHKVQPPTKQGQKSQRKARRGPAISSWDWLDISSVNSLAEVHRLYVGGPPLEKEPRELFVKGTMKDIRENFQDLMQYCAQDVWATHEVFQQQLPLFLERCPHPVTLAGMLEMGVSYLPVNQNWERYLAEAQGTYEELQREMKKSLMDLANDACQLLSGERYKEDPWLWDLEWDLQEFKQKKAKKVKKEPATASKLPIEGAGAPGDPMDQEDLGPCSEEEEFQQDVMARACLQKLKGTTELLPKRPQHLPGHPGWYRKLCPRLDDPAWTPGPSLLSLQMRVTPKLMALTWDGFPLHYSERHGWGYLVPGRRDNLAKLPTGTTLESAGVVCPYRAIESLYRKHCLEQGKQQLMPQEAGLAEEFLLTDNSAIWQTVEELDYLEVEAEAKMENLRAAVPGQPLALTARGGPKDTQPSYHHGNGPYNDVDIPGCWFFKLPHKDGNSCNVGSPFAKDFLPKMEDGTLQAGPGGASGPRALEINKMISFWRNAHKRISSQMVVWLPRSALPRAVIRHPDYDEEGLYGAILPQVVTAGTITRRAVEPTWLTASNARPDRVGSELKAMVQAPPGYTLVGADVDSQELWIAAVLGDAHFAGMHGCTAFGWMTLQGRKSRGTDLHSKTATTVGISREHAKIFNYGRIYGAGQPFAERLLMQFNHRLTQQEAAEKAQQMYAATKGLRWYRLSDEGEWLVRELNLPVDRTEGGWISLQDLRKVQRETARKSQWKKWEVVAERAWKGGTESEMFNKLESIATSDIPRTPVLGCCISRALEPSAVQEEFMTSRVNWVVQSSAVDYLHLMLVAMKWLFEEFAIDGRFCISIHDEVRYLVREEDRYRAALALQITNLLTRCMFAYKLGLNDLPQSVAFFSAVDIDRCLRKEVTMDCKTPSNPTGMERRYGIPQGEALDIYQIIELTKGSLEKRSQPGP

Polν = target: T5, Polν (Homo sapiens, UniProt Q7Z5Q5); experiment: biochemical; design: inhibition of human DNA polymerases, selectivity assay
T5 construct: gene POLN
T5 sequence (Q7Z5Q5 1-900): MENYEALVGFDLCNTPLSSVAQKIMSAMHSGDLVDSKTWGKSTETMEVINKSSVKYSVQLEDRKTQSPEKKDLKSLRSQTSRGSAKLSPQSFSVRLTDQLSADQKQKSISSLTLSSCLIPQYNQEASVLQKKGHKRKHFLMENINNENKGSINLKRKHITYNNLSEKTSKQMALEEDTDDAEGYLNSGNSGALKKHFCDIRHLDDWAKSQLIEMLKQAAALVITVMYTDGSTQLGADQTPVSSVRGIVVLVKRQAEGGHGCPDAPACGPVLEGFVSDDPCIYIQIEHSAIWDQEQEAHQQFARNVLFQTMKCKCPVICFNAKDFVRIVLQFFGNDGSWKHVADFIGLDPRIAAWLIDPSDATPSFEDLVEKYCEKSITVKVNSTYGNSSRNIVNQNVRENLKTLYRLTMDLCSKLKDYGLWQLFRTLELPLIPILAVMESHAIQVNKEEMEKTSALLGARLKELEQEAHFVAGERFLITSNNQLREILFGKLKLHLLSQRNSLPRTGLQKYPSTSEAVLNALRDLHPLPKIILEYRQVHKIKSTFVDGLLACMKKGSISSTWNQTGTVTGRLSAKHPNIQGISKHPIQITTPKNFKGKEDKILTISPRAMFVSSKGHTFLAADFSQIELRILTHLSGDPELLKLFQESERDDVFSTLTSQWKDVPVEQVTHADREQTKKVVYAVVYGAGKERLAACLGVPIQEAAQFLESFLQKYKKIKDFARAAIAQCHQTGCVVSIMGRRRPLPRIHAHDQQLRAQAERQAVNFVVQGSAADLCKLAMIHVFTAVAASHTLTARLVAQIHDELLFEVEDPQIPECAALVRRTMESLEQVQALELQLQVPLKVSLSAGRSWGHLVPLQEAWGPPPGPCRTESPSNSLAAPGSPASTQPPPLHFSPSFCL

IC50 (Polα): > 100 µM | IC50 (Polη): > 100 µM | IC50 (DNA polymerase Polθ): 0.0079 µM | IC50 (Polγ): > 100 µM | IC50 (Polν): > 100 µM
SMILES: Cc1cccc(N(C)C(=O)[C@@H]2[C@H](O)CCN2c2nc(C)cc(C(F)(F)F)c2C#N)c1 [ART558]
